In ChEMBL document CHEMBL1208702, “Use of 2-[(18)F]fluoroethylazide for the Staudinger ligation - Preparation and characterisation of GABA(A) receptor binding 4-quinolones” (Bioorg Med Chem Lett, 2010):

Experiments:
Blood [1] = assay: Biodistribution in iv dosed Sprague-Dawley rats blood after 30 mins by gamma counter; format: ADME, organism-based; conditions: rat, in vivo, 0.5 h
Spleen [2] = assay: Biodistribution in iv dosed Sprague-Dawley rats spleen after 10 mins by gamma counter; format: ADME, organism-based; conditions: rat, in vivo
Spleen [3] = assay: Biodistribution in iv dosed Sprague-Dawley rats spleen after 60 mins by gamma counter; format: ADME, organism-based; conditions: rat, in vivo, 1 h
Muscle tissue [4] = assay: Biodistribution in iv dosed Sprague-Dawley rats muscle after 0.5 min by gamma counter; format: ADME, organism-based; conditions: rat, in vivo
Lung = assay: Biodistribution in iv dosed Sprague-Dawley rats lung after 10 mins by gamma counter; format: ADME, organism-based; conditions: rat, in vivo
[5] = Drug uptake in high GABAA expression areas of Wistar rat brain prefrontal cortex at 0.1 MBq/ml after 60 mins by autoradiographic analysis; format: ADME, tissue-based; conditions: in vivo, 1 h
Liver [6] = assay: Biodistribution in iv dosed Sprague-Dawley rats liver after 30 mins by gamma counter; format: ADME, organism-based; conditions: rat, in vivo, 0.5 h
[7] = Biodistribution in iv dosed Sprague-Dawley rats fat after 30 mins by gamma counter; format: ADME, organism-based, Adipose tissue; conditions: rat, in vivo, 0.5 h
Blood [8] = assay: Biodistribution in iv dosed Sprague-Dawley rats blood after 60 mins by gamma counter; format: ADME, organism-based; conditions: rat, in vivo, 1 h
[9] = Biodistribution in iv dosed Sprague-Dawley rats fat after 2 mins by gamma counter; format: ADME, organism-based, Adipose tissue; conditions: rat, in vivo
Muscle tissue [10] = assay: Biodistribution in iv dosed Sprague-Dawley rats muscle after 2 mins by gamma counter; format: ADME, organism-based; conditions: rat, in vivo
Muscle tissue [11] = assay: Biodistribution in iv dosed Sprague-Dawley rats muscle after 30 mins by gamma counter; format: ADME, organism-based; conditions: rat, in vivo, 0.5 h
[12] = Drug uptake in Wistar rat brain prefrontal cortex olfactory tubercles at 0.1 MBq/ml after 60 mins by autoradiographic analysis; format: ADME, tissue-based; conditions: in vivo, 1 h
Heart = assay: Biodistribution in iv dosed Sprague-Dawley rats heart after 2 mins by gamma counter; format: ADME, organism-based; conditions: rat, in vivo
[13] = Biodistribution in iv dosed Sprague-Dawley rats stomach after 10 mins by gamma counter; format: ADME, organism-based; conditions: rat, in vivo
Brain = assay: Biodistribution in iv dosed Sprague-Dawley rats brain after 10 mins by gamma counter; format: ADME, organism-based; conditions: rat, in vivo
[14] = Biodistribution in iv dosed Sprague-Dawley rats large intestine after 0.5 min by gamma counter; format: ADME, organism-based; conditions: rat, in vivo
[15] = Biodistribution in iv dosed Sprague-Dawley rats bladder and urine after 0.5 min by gamma counter; format: ADME, organism-based; conditions: rat, in vivo
[16] = Biodistribution in iv dosed Sprague-Dawley rats fat after 10 mins by gamma counter; format: ADME, organism-based, Adipose tissue; conditions: rat, in vivo
Kidney [17] = assay: Biodistribution in iv dosed Sprague-Dawley rats kidneys after 2 mins by gamma counter; format: ADME, organism-based; conditions: rat, in vivo
[18] = Biodistribution in iv dosed Sprague-Dawley rats fat after 60 mins by gamma counter; format: ADME, organism-based, Adipose tissue; conditions: rat, in vivo, 1 h
[19] = Biodistribution in iv dosed Sprague-Dawley rats large intestine after 60 mins by gamma counter; format: ADME, organism-based; conditions: rat, in vivo, 1 h
[20] = Biodistribution in iv dosed Sprague-Dawley rats stomach after 30 mins by gamma counter; format: ADME, organism-based; conditions: rat, in vivo, 0.5 h
Kidney [21] = assay: Biodistribution in iv dosed Sprague-Dawley rats kidneys after 0.5 min by gamma counter; format: ADME, organism-based; conditions: rat, in vivo
[22] = Biodistribution in iv dosed Sprague-Dawley rats small intestine after 0.5 min by gamma counter; format: ADME, organism-based; conditions: rat, in vivo
Liver [23] = assay: Biodistribution in iv dosed Sprague-Dawley rats liver after 2 mins by gamma counter; format: ADME, organism-based; conditions: rat, in vivo
Blood [24] = assay: Biodistribution in iv dosed Sprague-Dawley rats blood after 10 mins by gamma counter; format: ADME, organism-based; conditions: rat, in vivo
[25] = Biodistribution in iv dosed Sprague-Dawley rats fat after 0.5 min by gamma counter; format: ADME, organism-based, Adipose tissue; conditions: rat, in vivo
Bone = assay: Biodistribution in iv dosed Sprague-Dawley rats bone after 0.5 min by gamma counter; format: ADME, organism-based, Bone element; conditions: rat, in vivo
[26] = Biodistribution in iv dosed Sprague-Dawley rats bladder and urine after 60 mins by gamma counter; format: ADME, organism-based; conditions: rat, in vivo, 1 h
Blood [27] = assay: Biodistribution in iv dosed Sprague-Dawley rats blood after 2 mins by gamma counter; format: ADME, organism-based; conditions: rat, in vivo
[28] = Biodistribution in iv dosed Sprague-Dawley rats stomach after 60 mins by gamma counter; format: ADME, organism-based; conditions: rat, in vivo, 1 h
Spleen [29] = assay: Biodistribution in iv dosed Sprague-Dawley rats spleen after 30 mins by gamma counter; format: ADME, organism-based; conditions: rat, in vivo, 0.5 h
Muscle tissue [30] = assay: Biodistribution in iv dosed Sprague-Dawley rats muscle after 60 mins by gamma counter; format: ADME, organism-based; conditions: rat, in vivo, 1 h
[31] = Drug uptake in Wistar rat brain thalamus/striatum cortex at 0.1 MBq/ml after 60 mins by autoradiographic analysis; format: ADME, tissue-based; conditions: in vivo, 1 h
Kidney [32] = assay: Biodistribution in iv dosed Sprague-Dawley rats kidneys after 10 mins by gamma counter; format: ADME, organism-based; conditions: rat, in vivo
[33] = Biodistribution in iv dosed Sprague-Dawley rats large intestine after 30 mins by gamma counter; format: ADME, organism-based; conditions: rat, in vivo, 0.5 h
[34] = Drug uptake in high GABAA expression areas of Wistar rat brain thalamus/striatum cortex at 0.1 MBq/ml after 60 mins by autoradiographic analysis; format: ADME, tissue-based; conditions: in vivo, 1 h

Question: With `O=C(NCC[18F])c1c[nH]c2ccc(Cc3ccccc3)cc2c1=O` as the molecule, how does the Drug uptake (Blood [1]) read?
Answer: 1.5 %ID

Question: What about the Drug uptake (Spleen [2]) of the same molecule?
Answer: 0.2 %ID

Question: What about the Drug uptake (Spleen [3]) of the same molecule?
Answer: 0 %ID

Question: And the Drug uptake (Muscle tissue [4])?
Answer: 56.1 %ID

Question: And the Drug uptake (Lung)?
Answer: 0.6 %ID

Question: What about the Drug uptake [5] of the same molecule?
Answer: 78%

Question: What about the Drug uptake (Liver [6]) of the same molecule?
Answer: 18.7 %ID

Question: What about the Drug uptake [7] of the same molecule?
Answer: 1.7 %ID

Question: And the Drug uptake (Blood [8])?
Answer: 0.7 %ID

Question: And the Drug uptake [9]?
Answer: 1.8 %ID

Question: And the Drug uptake (Muscle tissue [10])?
Answer: 47.3 %ID

Question: And the Drug uptake (Muscle tissue [11])?
Answer: 16.5 %ID

Question: And the Drug uptake [12]?
Answer: 60%

Question: And the Drug uptake (Heart)?
Answer: 1.1 %ID

Question: What about the Drug uptake [13] of the same molecule?
Answer: 1 %ID

Question: What about the Drug uptake (Brain) of the same molecule?
Answer: 0.1 %ID

Question: What about the Drug uptake [14] of the same molecule?
Answer: 0.9 %ID

Question: And the Drug uptake [15]?
Answer: 0.2 %ID

Question: And the Drug uptake [16]?
Answer: 1.8 %ID

Question: What about the Drug uptake (Kidney [17]) of the same molecule?
Answer: 3.6 %ID

Question: What about the Drug uptake [18] of the same molecule?
Answer: 0.3 %ID

Question: What about the Drug uptake [19] of the same molecule?
Answer: 1.9 %ID

Question: What about the Drug uptake [20] of the same molecule?
Answer: 0.5 %ID

Question: What about the Drug uptake (Kidney [21]) of the same molecule?
Answer: 4 %ID

Question: What about the Drug uptake [22] of the same molecule?
Answer: 4.7 %ID

Question: What about the Drug uptake (Liver [23]) of the same molecule?
Answer: 28.5 %ID

Question: And the Drug uptake (Blood [24])?
Answer: 2.8 %ID

Question: And the Drug uptake [25]?
Answer: 0.6 %ID

Question: What about the Drug uptake (Bone) of the same molecule?
Answer: 3 %ID

Question: And the Drug uptake [26]?
Answer: 7.3 %ID

Question: And the Drug uptake (Blood [27])?
Answer: 4.2 %ID

Question: And the Drug uptake [28]?
Answer: 0.2 %ID

Question: What about the Drug uptake (Spleen [29]) of the same molecule?
Answer: 0.1 %ID

Question: What about the Drug uptake (Muscle tissue [30]) of the same molecule?
Answer: 4.6 %ID

Question: And the Drug uptake [31]?
Answer: 60%

Question: What about the Drug uptake (Kidney [32]) of the same molecule?
Answer: 2.1 %ID

Question: And the Drug uptake [33]?
Answer: 1.7 %ID

Question: What about the Drug uptake [34] of the same molecule?
Answer: 76%
